Read-outs that look alike come from different tables or passages of the source.
Legend:
[1] = plasma levels of Compound A in MI-rat; type: in vivo; conditions: po, read-out: Plasma Level
Description: Drugs were administered in chow such that the investigators were blinded to group assignment. A biweekly record of health status, body weight, and food consumption was maintained.
Dosing began at 2 weeks post-MI and continued for 6 weeks.
The isoflurane level was then increased to 2%; the Millar was removed from the carotid and replaced with a PE-50 cannula. A 5 mL blood sample was taken using the PE-50 cannula and an ice-cold syringe. Blood was then put into an ice-cold EDTA tube, and centrifuged at 5000 RPM for 10 minutes at 4° C. Plasma was aliquoted, then stored at -80° C. until assays were performed to assess plasma drug levels and other factors.

[2] = tested on: chronic rapid pacing heart failure model; assay: LV geometry, LV function and systemic hemodynamics with chronic rapid pacing (Table III); type: in vivo, pig; conditions: Rapid Pacing + MMPi, 20 mg/kg QD, 3 weeks, mean ± SEM
Description: Pacemakers were implanted or sham procedures performed with the animals anesthetized as described in the preceding section. In addition to the placement of the aortic access port, a shielded stimulating electrode was sutured onto the left atrium, connected to a modified programmable pacemaker (8329, Medtronic, Inc., Minneapolis, Minn.), and buried in a subcutaneous pocket. The pericardium was approximated, the thoracotomy closed, and the pleural space evacuated of air. Ten to 14 days following recovery from the surgical procedure, baseline studies were performed, and the protocols described above were begun. Cardiac auscultation and an electrocardiogram were performed frequently during the pacing protocol in order to ensure proper operation of the pacemaker and the presence of 1:1 conduction. In this porcine preparation, atrio-ventricular conduction can be maintained at this pacing rate and therefore provide a homogeneous pattern of ventricular myocardial electrical activation. The sham operated controls were cared for in identical fashion with the exception of the pacing protocol. All animals were treated and cared for in accordance with the National Institutes of Health "Guide for the Care and Use of Laboratory Animals" (National Research Council, Washington, 1996).
LV size and function were measured at weekly intervals in all of the pigs undergoing rapid pacing. For these studies, the animals were brought to the laboratory and the pacemaker deactivated. All measurements were performed at an ambient resting heart rate within 30 to 40 minutes following pacemaker deactivation. Two-dimensional and M-mode echocardiographic studies (ATL Ultramark VI, 2.25 MHz transducer, Bothell, Wash.) were used to image the LV from a right parasternal approach. LV fractional shortening was calculated as ([…])/end-diastolic dimension and was expressed as a percent. Peak circumferential global average wall stress was computed using a spherical model of reference: σ(gm/cm^2)=(PD/4h(1+h/D))×1.36; where P=aortic systolic pressure measured from the access port, D=minor axis dimension at end-diastole, and h=wall thickness. The mean velocity of circumferential fiber shortening (Vcf) was calculated using the LV echocardiographic dimension measurements and the arterial pressure trace. The LV ejection time, used in the calculation of Vcf, was rate-corrected to a heart rate of 60 bpm by […] by the square root of the RR interval.

[3] = tested on: plasma neurohormones; assay: plasma neurohormones with chronic rapid pacing (Table III); type: in vivo, pig; conditions: Rapid Pacing + MMPi, 20 mg/kg QD, 3 weeks, mean ± SEM
Description: Following steady-state LV function measurements, 35 cc of blood was drawn from the arterial access port into chilled tubes containing EDTA (1.5 mg/mL). The blood samples were immediately centrifuged (2000 g, 10 min, 4° C.), the plasma decanted into separate tubes, frozen in a dry ice/methanol bath, and stored at -80° C. until the time of assay.
The plasma samples were assayed for renin activity, catecholamine levels, and plasma MMP inhibition levels. Plasma renin activity (PRA) was determined by computing angiotensin I production using a radioimmunoassay (NEA-026, New England Nuclear, Boston, Mass.). Plasma norepinephrine was measured using high-performance liquid chromatography and normalized to pg/mL of plasma. All assays were performed in duplicate.
For comparisons of neurohormonal profiles, the Student-Neuman-Kuells test was employed. […] Values of p<0.05 were considered to be statistically significant.

## CC(C)C(NS(=O)(=O)c1ccc(-c2ccc(Br)cc2)cc1)C(=O)O (centres unmarked) [Compound A, 2-(4'-bromobiphenyl-4-sulfonylamino)-3-methylbutyric acid]
[1]; 0.005 mg/kg/day in chow
  concentration at 1008 h: 2 ± 1 µM
[1]; 0.05 mg/kg/day in chow
  concentration at 1008 h: 16 ± 4 µM
[1]; 0.5 mg/kg/day in chow
  concentration at 1008 h: 55 ± 3 µM
[1]; 5 mg/kg/day in chow
  concentration at 1008 h: 201 ± 7 µM
[2]
  End-Diastolic Dimension: 4.7 ± 0.2 cm
  Fractional Shortening: 26 ± 3%
  Heart Rate: 149 ± 3 bpm
  Mean Arterial Pressure: 83 ± 2 mmHg
  Peak Wall Stress: 185 ± 11 g/cm^2
  Vcf (velocity of circumferential fiber shortening): 1.4 ± 0.2 s⁻¹
  Vcfc (velocity of circumferential fiber shortening corrected for heart rate): 2.3 ± 0.2 s⁻¹
  Wall Thickness: 0.80 ± 0.22 CM
[3]
  Norepinephrine: 1073 ± 241 pg/mL
  Renin Activity: 10.4 ± 1.1 ng/mL/h

— patent US5948780A, “Method for treating and preventing heart failure and ventricular dilatation” (priority 1997, dated 1999)
